Here are results for 13 molecules from patent US12180193B2, “Accelerating fibrosarcoma protein degrading compounds and associated methods of use” (Arvinas Operations, Inc., priority 2020, dated 2024).

Broadly, the DC50 is the concentration at which degradation of the target reaches its halfway point. As a reminder, the Dmax is the largest share of the target that was removed. Read a low Dmax as shallow degradation.

One test has as its target T1, BRAF V600E (Homo sapiens, UniProt P15056, V600E).
T1 construct: expressed in transfected cells
In words: Cellular assay of target protein degradation, T-Rex 293 cells stably transfected with HA-BRAF_V600E (HA immunofluorescence, high content imaging). The class given is cell-based. As to conditions: T-Rex 293 HA-BRAF V600E; for DC50: half maximal degradation, read-out: BRaf V600E DC50; for Dmax: maximum degradation observed. The method, boiled down: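 HA immunofluorescence on fixed cells, imaged by high-content reader, measured loss of HA-BRAF V600E in stably transfected T-Rex 293 cells induced with 1 ng/mL doxycycline. Compounds were applied for 24 h at 37 °C (final 0.1 nM–1 μM, 0.1% DMSO); DC50 and Dmax (% of control) were reported.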

The target of the next test is T2, BRAF G466V (Homo sapiens, UniProt P15056, G466V).
T2 construct: expressed in transfected cells
T2 sequence (P15056 whole entry G466V): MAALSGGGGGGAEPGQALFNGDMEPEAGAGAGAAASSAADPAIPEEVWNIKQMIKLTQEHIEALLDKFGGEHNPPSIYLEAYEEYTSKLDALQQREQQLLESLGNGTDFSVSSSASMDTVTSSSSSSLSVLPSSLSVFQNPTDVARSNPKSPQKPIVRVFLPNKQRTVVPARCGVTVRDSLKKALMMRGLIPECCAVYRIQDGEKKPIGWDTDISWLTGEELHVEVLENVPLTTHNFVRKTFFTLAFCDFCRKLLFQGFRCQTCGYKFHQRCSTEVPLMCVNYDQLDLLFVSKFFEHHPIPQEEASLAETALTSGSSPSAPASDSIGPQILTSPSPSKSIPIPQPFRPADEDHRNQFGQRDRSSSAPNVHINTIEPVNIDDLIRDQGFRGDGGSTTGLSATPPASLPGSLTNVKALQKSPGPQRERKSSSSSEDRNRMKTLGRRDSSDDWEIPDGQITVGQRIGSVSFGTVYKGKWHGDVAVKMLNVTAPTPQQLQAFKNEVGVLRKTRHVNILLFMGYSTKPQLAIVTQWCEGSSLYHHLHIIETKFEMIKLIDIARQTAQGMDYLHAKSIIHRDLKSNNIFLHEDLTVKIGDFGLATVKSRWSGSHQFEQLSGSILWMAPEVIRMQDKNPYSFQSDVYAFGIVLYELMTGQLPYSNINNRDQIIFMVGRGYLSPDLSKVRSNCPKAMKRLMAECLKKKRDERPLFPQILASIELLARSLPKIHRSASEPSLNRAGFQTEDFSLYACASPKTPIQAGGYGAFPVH
In words: Cellular assay of target protein degradation, T-Rex 293 cells stably transfected with HA-BRAF G466V (HA immunofluorescence, high content imaging). The class given is cell-based. As to conditions: T-Rex 293 HA-BRAF G466V; for DC50: half maximal degradation, read-out: BRaf G466V DC50; for Dmax: maximum degradation observed. In a few lines:
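HA-BRAF G466V levels were read by HA immunofluorescence and high-content imaging after 24 h compound exposure (final 30 nM–3 pM, 0.1% DMSO, 37 °C). Expression was induced with 0.75 ng/mL doxycycline. Outputs: half-maximal degradation concentration (DC50) and maximal degradation (Dmax) relative to control.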

T1 sequence (P15056 whole entry V600E): as the sequence (P15056 whole entry G466V) above, with V466G, V600E counted along it

For `O=C1CCC(N2Cc3cc(C4CCN(CCC5CN(c6ccc(-c7cnc8[nH]cc(C(=O)c9c(F)ccc(NS(=O)(=O)N%10CC[C@@H](F)C%10)c9F)c8c7)cc6)C5)CC4)ccc3C2=O)C(=O)N1` (stereo partly drawn) [Compound 218, (3R)-N-[3-(5-{4-[3-(2-{4-[2-(2,6-dioxopiperidin-3-yl)-1-oxo-2,3-dihydro-1H-isoindol-5-yl]piperidin-1-yl}ethyl)azetidin-1-yl]phenyl}-1H-pyrrolo[2,3-b]pyridine-3-carbonyl)-2,4-difluorophenyl]-3-fluoropyrrolidine-1-sulfonamide], the DC50 on BRAF V600E is more than 500 nM; at BRAF G466V, more than 30 nM.

On to `O=C1CC[C@H](N2Cc3cc(N4CCN(CC5CCN(c6ccc(-c7cnc8[nH]cc(C(=O)c9c(F)ccc(NS(=O)(=O)N%10CC[C@@H](F)C%10)c9F)c8c7)cc6)CC5)CC4)ccc3C2=O)C(=O)N1` [Compound 219, (3R)-N-{3-[5-(4-{4-[(4-{2-[(3S)-2,6-dioxopiperidin-3-yl]-1-oxo-2,3-dihydro-1H-isoindol-5-yl}piperazin-1-yl)methyl]piperidin-1-yl}phenyl)-1H-pyrrolo [2,3-b]pyridine-3-carbonyl]-2,4-difluorophenyl}-3-fluoropyrrolidine-1-sulfonamide], for which the DC50 lay in the range of 5 to 50 nM on BRAF V600E and 1 to 10 nM on BRAF G466V. The greatest degradation seen (Dmax) was 35 to 70% at BRAF V600E and more than 70% on BRAF G466V.

Take `O=C1CC[C@@H](N2Cc3cc(N4CCN(CC5CCN(c6ccc(-c7cnc8[nH]cc(C(=O)c9c(F)ccc(NS(=O)(=O)N%10CC[C@@H](F)C%10)c9F)c8c7)cc6)CC5)CC4)ccc3C2=O)C(=O)N1` [Compound 220, (3R)-N-{3-[5-(4-{4-[(4-{2-[(3R)-2,6-dioxopiperidin-3-yl]-1-oxo-2,3-dihydro-1H-isoindol-5-yl}piperazin-1-yl)methyl]piperidin-1-yl}phenyl)-1H-pyrrolo [2,3-b]pyridine-3-carbonyl]-2,4-difluorophenyl}-3-fluoropyrrolidine-1-sulfonamide]: at BRAF V600E, the DC50 fell in the range of 5 to 50 nM and the Dmax is 35 to 70%. Moreover, on BRAF G466V, the DC50 fell in the range of 1 to 10 nM and the Dmax is more than 70%.

In the case of `O=C1CC[C@H](N2Cc3cc(N4CC5(CN(CC6CCN(c7ccc(-c8cnc9[nH]cc(C(=O)c%10c(F)ccc(NS(=O)(=O)N%11CC[C@@H](F)C%11)c%10F)c9c8)cc7)CC6)C5)C4)ccc3C2=O)C(=O)N1` [Compound 221, (3R)-N-{3-[5-(4-{4-[(6-{2-[(3S)-2,6-dioxopiperidin-3-yl]-1-oxo-2,3-dihydro-1H-isoindol-5-yl}-2,6-diazaspiro[3.3]heptan-2-yl)methyl]piperidin-1-yl}phenyl)-1H-pyrrolo[2,3-b]pyridine-3-carbonyl]-2,4-difluorophenyl}-3-fluoropyrrolidine-1-sulfonamide], the values for the half-maximal degradation concentration (DC50) on BRAF V600E and at BRAF G466V were 5 to 50 nM and 1 to 10 nM, respectively. Besides, the Dmax at BRAF V600E is 35 to 70%; on BRAF G466V, more than 70%.

For `O=C1CC[C@@H](N2Cc3cc(N4CC5(CN(CC6CCN(c7ccc(-c8cnc9[nH]cc(C(=O)c%10c(F)ccc(NS(=O)(=O)N%11CC[C@@H](F)C%11)c%10F)c9c8)cc7)CC6)C5)C4)ccc3C2=O)C(=O)N1` [Compound 222, (3R)-N-{3-[5-(4-{4-[(6-{2-[(3R)-2,6-dioxopiperidin-3-yl]-1-oxo-2,3-dihydro-1H-isoindol-5-yl}-2,6-diazaspiro[3.3]heptan-2-yl)methyl]piperidin-1-yl}phenyl)-1H-pyrrolo[2,3-b]pyridine-3-carbonyl]-2,4-difluorophenyl}-3-fluoropyrrolidine-1-sulfonamide], at BRAF V600E, the DC50 was 5 to 50 nM and the Dmax was in the range of 35 to 70%. Besides, at BRAF G466V, the DC50 lay within 1 to 10 nM and the Dmax was more than 70%.

For `O=C1CC[C@H](N2Cc3cc(N4CCC(CN5CCN(c6ccc(-c7cnc8[nH]cc(C(=O)c9c(F)ccc(NS(=O)(=O)N%10CC[C@@H](F)C%10)c9F)c8c7)cc6)CC5)CC4)ccc3C2=O)C(=O)N1` [Compound 223, (3R)-N-{3-[5-(4-{4-[(1-{2-[(3S)-2,6-dioxopiperidin-3-yl]-1-oxo-2,3-dihydro-1H-isoindol-5-yl}piperidin-4-yl)methyl]piperazin-1-yl}phenyl)-1H-pyrrolo [2,3-b]pyridine-3-carbonyl]-2,4-difluorophenyl}-3-fluoropyrrolidine-1-sulfonamide], on BRAF V600E, the DC50 lay within 5 to 50 nM and the Dmax was 35 to 70%. On BRAF G466V, the DC50 lay within 1 to 10 nM and the Dmax is more than 70%.

As to `O=C1CC[C@@H](N2Cc3cc(N4CCC(CN5CCN(c6ccc(-c7cnc8[nH]cc(C(=O)c9c(F)ccc(NS(=O)(=O)N%10CC[C@@H](F)C%10)c9F)c8c7)cc6)CC5)CC4)ccc3C2=O)C(=O)N1` [Compound 224, (3R)-N-{3-[5-(4-{4-[(1-{2-[(3R)-2,6-dioxopiperidin-3-yl]-1-oxo-2,3-dihydro-1H-isoindol-5-yl}piperidin-4-yl)methyl]piperazin-1-yl}phenyl)-1H-pyrrolo [2,3-b]pyridine-3-carbonyl]-2,4-difluorophenyl}-3-fluoropyrrolidine-1-sulfonamide], the DC50 fell in the range of 5 to 50 nM at BRAF V600E and 1 to 10 nM on BRAF G466V. In addition, the Dmax at BRAF V600E was 35 to 70%; at BRAF G466V, more than 70%.

Take `COc1cc(N2CCC(CN3CC4(C3)CN(c3ccc(-c5cnc6[nH]cc(C(=O)c7c(F)ccc(NS(=O)(=O)N8CC[C@@H](F)C8)c7F)c6c5)cc3)C4)CC2)cc2c1C(=O)N([C@@H]1CCC(=O)NC1=O)C2` [Compound 225, (3R)-N-{3-[5-(4-{6-[(1-{2-[(3R)-2,6-dioxopiperidin-3-yl]-7-methoxy-1-oxo-2,3-dihydro-1H-isoindol-5-yl}piperidin-4-yl)methyl]-2,6-diazaspiro[3.3]heptan-2-yl}phenyl)-1H-pyrrolo[2,3-b]pyridine-3-carbonyl]-2,4-difluorophenyl}-3-fluoropyrrolidine-1-sulfonamide]: the DC50 on BRAF V600E was in the range of 5 to 50 nM; on BRAF G466V, 1 to 10 nM. The maximal degradation (Dmax) was 35 to 70% on BRAF V600E and more than 70% on BRAF G466V.

With `COc1cc(N2CCC(CN3CC4(C3)CN(c3ccc(-c5cnc6[nH]cc(C(=O)c7c(F)ccc(NS(=O)(=O)N8CC[C@@H](F)C8)c7F)c6c5)cc3)C4)CC2)cc2c1C(=O)N([C@H]1CCC(=O)NC1=O)C2` [Compound 226, (3R)-N-{3-[5-(4-{6-[(1-{2-[(3S)-2,6-dioxopiperidin-3-yl]-7-methoxy-1-oxo-2,3-dihydro-1H-isoindol-5-yl}piperidin-4-yl)methyl]-2,6-diazaspiro[3.3]heptan-2-yl}phenyl)-1H-pyrrolo[2,3-b]pyridine-3-carbonyl]-2,4-difluorophenyl}-3-fluoropyrrolidine-1-sulfonamide], at BRAF V600E, the DC50 was 5 to 50 nM and the Dmax was less than 35%. In addition, at BRAF G466V, the DC50 is 1 to 10 nM and the Dmax is more than 70%.

Turning to `O=C1CCC(N2Cc3cc(N4CC(C5CN(CC6CCN(c7ccc(-c8cnc9[nH]cc(C(=O)c%10c(F)ccc(NS(=O)(=O)N%11CC[C@@H](F)C%11)c%10F)c9c8)cc7)CC6)C5)C4)ccc3C2=O)C(=O)N1` (stereo partly drawn) [Compound 227, (3R)-N-[3-(5-{4-[4-({1′-[2-(2,6-dioxopiperidin-3-yl)-1-oxo-2,3-dihydro-1H-isoindol-5-yl]-[3,3′-biazetidin]-1-yl}methyl)piperidin-1-yl]phenyl}-1H-pyrrolo[2,3-b]pyridine-3-carbonyl)-2,4-difluorophenyl]-3-fluoropyrrolidine-1-sulfonamide], at BRAF V600E, the DC50 was 5 to 50 nM and the Dmax was less than 35%. Also, at BRAF G466V, the 50% degradation concentration (DC50) is 1 to 10 nM and the Dmax is more than 70%.

For `CCCS(=O)(=O)Nc1ccc(F)c(C(=O)c2c[nH]c3ncc(-c4ccc(N5CCC(CN6CC7(C6)CN(c6ccc8c(c6)CN([C@H]6CCC(=O)NC6=O)C8=O)C7)CC5)cc4)cc23)c1F` [Compound 228, N-{3-[5-(4-{4-[(6-{2-[(3S)-2,6-dioxopiperidin-3-yl]-1-oxo-2,3-dihydro-1H-isoindol-5-yl}-2,6-diazaspiro[3.3]heptan-2-yl)methyl]piperidin-1-yl}phenyl)-1H-pyrrolo [2,3-b]pyridine-3-carbonyl]-2,4-difluorophenyl} propane-1-sulfonamide], on BRAF V600E, the DC50 fell in the range of 5 to 50 nM and the Dmax lay within 35 to 70%. In addition, on BRAF G466V, the DC50 is less than 1 nM and the Dmax is more than 70%.

Take `CCCS(=O)(=O)Nc1ccc(F)c(C(=O)c2c[nH]c3ncc(-c4ccc(N5CCC(CN6CC7(C6)CN(c6ccc8c(c6)CN([C@@H]6CCC(=O)NC6=O)C8=O)C7)CC5)cc4)cc23)c1F` [Compound 229, N-{3-[5-(4-{4-[(6-{2-[(3R)-2,6-dioxopiperidin-3-yl]-1-oxo-2,3-dihydro-1H-isoindol-5-yl}-2,6-diazaspiro[3.3]heptan-2-yl)methyl]piperidin-1-yl}phenyl)-1H-pyrrolo [2,3-b]pyridine-3-carbonyl]-2,4-difluorophenyl} propane-1-sulfonamide]: at BRAF V600E, the DC50 was 5 to 50 nM and the Dmax fell in the range of 35 to 70%. For the same molecule, at BRAF G466V, the DC50 lay within 1 to 10 nM and the Dmax is more than 70%.

As to `O=C1CC[C@H](N2Cc3cc(C4CCN(CC5CCN(c6ccc(-c7cnc8[nH]cc(C(=O)c9c(F)ccc(NS(=O)(=O)N%10CCCC%10)c9F)c8c7)cc6)CC5)CC4)ccc3C2=O)C(=O)N1` [Compound 230, N-{3-[5-(4-{4-[(4-{2-[(3S)-2,6-dioxopiperidin-3-yl]-1-oxo-2,3-dihydro-1H-isoindol-5-yl}piperidin-1-yl)methyl]piperidin-1-yl}phenyl)-1H-pyrrolo[2,3-b]pyridine-3-carbonyl]-2,4-difluorophenyl}pyrrolidine-1-sulfonamide], at BRAF V600E, the 50% degradation concentration (DC50) is 5 to 50 nM and the Dmax lay in the range of 35 to 70%. At BRAF G466V, the DC50 is less than 1 nM and the maximal degradation (Dmax) is more than 70%.
